These results are taken from ChEMBL document CHEMBL3045315, “Effect of ring A and ring B substitution on the cytotoxic potential of pyrazole tethered chalcones” (Med Chem Res, 2012).

Common to all, as to format: functional, cell-based
Assay [1] deals with HEp-2. The assay is described as follows: Cytotoxicity against Homo sapiens (human) Hep2 cells after 48 hr by SRB assay. The conditions noted are these: HEp-2, 48 h. In general terms: Sulforhodamine B stains cellular protein and so reports cell mass.
Assay [2] has as its system IMR-32. The assay is described as follows: Cytotoxicity against Homo sapiens (human) IMR32 cells after 48 hr by SRB assay. The conditions noted are these: IMR-32, 48 h.
Assay [3] relates to OVCAR. The assay is described as follows: Cytotoxicity against Homo sapiens (human) OVCAR cells after 48 hr by SRB assay.
In assay [4] the test system is PC-3. The assay is described as follows: Cytotoxicity against Homo sapiens (human) PC3 cells after 48 hr by SRB assay. To be noted: PC-3, 48 h.

In the case of `CC(=O)N1N=C(c2cccc3ccccc23)CC1/C=C/c1ccccc1` (stereo not drawn), the IC50 in assay [1] was 21.1 µM; in assay [2], 26.7 µM; in assay [3], 24 µM; in assay [4], 21.1 µM.

As to `CC(=O)N1N=C(c2ccc(Br)cc2)CC1c1ccccc1` (stereo not drawn), the IC50 in assay [1] is 27.8 µM; in assay [2], 22.4 µM; in assay [3] it was 21.2 µM; in assay [4], 29.9 µM.

For `CC(=O)N1N=C(c2ccco2)CC1c1ccc(N(C)C)cc1` (stereo not drawn), the IC50 was found to be 16 µM in assay [1], 16.1 µM in assay [2], 14.6 µM in assay [3] and 16.7 µM in assay [4].

With `CC(=O)N1N=C(c2ccco2)CC1c1cccc(Cl)c1Cl` (stereo not drawn), the IC50 in assay [1] worked out at 43.2 µM; in assay [2], 62.2 µM; in assay [3], 81.2 µM; in assay [4], 61.2 µM.

With `CC(=O)N1N=C(c2ccccc2)CC1c1ccc(N(C)C)cc1` (stereo not drawn), the IC50 in assay [1] was 14.6 µM; in assay [2], 9.66 µM; in assay [3] it was 12 µM; in assay [4], 7.88 µM.

Take `COc1ccc(OC)c(C2CC(c3cccc4ccccc34)=NN2C(C)=O)c1` (stereo not drawn): the IC50 in assay [1] turned out to be 1.31 µM; in assay [2] it was 1.58 µM; in assay [3] it was 2.65 µM; in assay [4] it was 1.98 µM.

In the case of `COc1ccc(OC)c(C2CC(c3ccco3)=NN2C(C)=O)c1` (stereo not drawn), the IC50 is 13.3 µM in assay [1], 11.8 µM in assay [2], 11 µM in assay [3] and 11.2 µM in assay [4].

For `CC(=O)N1N=C(c2cccc3ccccc23)CC1c1ccc2ccccc2c1` (stereo not drawn), the IC50 in assay [1] stood at 0.19 µM; in assay [2], 0.27 µM; in assay [3], 0.25 µM; in assay [4], 0.21 µM.

Regarding `CC(=O)N1N=C(c2ccc3ccccc3c2)CC1c1cccc(Cl)c1Cl` (stereo not drawn), the IC50 was found to be 12.5 µM in assay [1], 16.9 µM in assay [2], 15.1 µM in assay [3] and 17.9 µM in assay [4].

Regarding `CC(=O)N1N=C(c2ccc3ccccc3c2)CC1c1ccccc1` (stereo not drawn), the IC50 was found to be 8.4 µM in assay [1], 10 µM in assay [2], 21.5 µM in assay [3] and 7.4 µM in assay [4].

Take `COc1ccc(C2CC(c3ccco3)=NN2C(C)=O)cc1` (stereo not drawn): the IC50 worked out at 15.6 µM in assay [1], 14.5 µM in assay [2], 14.3 µM in assay [3] and 15.5 µM in assay [4].

In the case of `COc1cc(C2CC(c3ccco3)=NN2C(C)=O)cc(OC)c1OC` (stereo not drawn), the IC50 was determined as 21.3 µM in assay [1], 9.87 µM in assay [2], 10.9 µM in assay [3] and 9.65 µM in assay [4].

In the case of `COc1ccc(C2CC(c3ccc4ccccc4c3)=NN2C(C)=O)c(OC)c1OC` (stereo not drawn), the IC50 was 0.59 µM in assay [1], 0.78 µM in assay [2], 0.58 µM in assay [3] and 0.61 µM in assay [4].

As to `CC(=O)N1N=C(c2ccco2)CC1c1cccc(O)c1` (stereo not drawn), the IC50 in assay [1] was determined as 10 µM; in assay [2] it was 11.8 µM; in assay [3], 13.2 µM; in assay [4], 16.5 µM.

For the molecule `CC(=O)N1N=C(c2ccccc2)CC1c1ccc2c(c1)OCO2` (stereo not drawn), the IC50 in assay [1] came to 6.65 µM; in assay [2], 7.64 µM; in assay [3], 8.73 µM; in assay [4] it was 8.89 µM.

With `COc1ccc(C2CC(c3cccc([N+](=O)[O-])c3)=NN2C(C)=O)cc1` (stereo not drawn), the IC50 in assay [1] was 8.21 µM; in assay [2] it was 6.65 µM; in assay [3] it was 8.76 µM; in assay [4], 7.83 µM.

In the case of `CC(=O)N1N=C(c2ccc(Br)cc2)CC1c1cccc(Cl)c1Cl` (stereo not drawn), the IC50 in assay [1] turned out to be 50 µM; in assay [2], 45.7 µM; in assay [3] it was 39.8 µM; in assay [4], 38.8 µM.

`CC(=O)N1N=C(c2cccc3ccccc23)CC1c1ccccc1` (stereo not drawn): the IC50 was 11.2 µM in assay [1], 7.76 µM in assay [2], 7.82 µM in assay [3] and 8.46 µM in assay [4].

Regarding `CC(=O)N1N=C(c2ccc3ccccc3c2)CC1c1cccc([N+](=O)[O-])c1` (stereo not drawn), the IC50 in assay [1] came out at 3.87 µM; in assay [2] it was 3.28 µM; in assay [3], 3.39 µM; in assay [4], 2.98 µM.

Turning to `COc1cc(C2CC(c3ccco3)=NN2C(C)=O)ccc1O` (stereo not drawn), the IC50 was 10.1 µM in assay [1], 23.3 µM in assay [2], 11.3 µM in assay [3] and 12.9 µM in assay [4].

In the case of `CC(=O)N1N=C(c2ccccc2)CC1c1cccc(Cl)c1Cl` (stereo not drawn), the IC50 in assay [1] is 24 µM; in assay [2] it was 42.9 µM; in assay [3], 36.8 µM; in assay [4], 31.6 µM.

Turning to `CC(=O)N1N=C(c2cccc3ccccc23)CC1c1ccc2c(c1)OCO2` (stereo not drawn), the IC50 in assay [1] is 1.07 µM; in assay [2], 1.91 µM; in assay [3] it was 3.76 µM; in assay [4] it was 2.09 µM.

For `CC(=O)N1N=C(c2ccco2)CC1c1ccc(C)cc1` (stereo not drawn), the IC50 in assay [1] was 19.3 µM; in assay [2] it was 29.1 µM; in assay [3], 11.2 µM; in assay [4], 21.2 µM.

In the case of `CC(=O)O[C@H]1C(=O)[C@@]2(C)[C@H]([C@H](OC(=O)c3ccccc3)[C@]3(O)C[C@H](OC(=O)[C@H](O)[C@@H](NC(=O)c4ccccc4)c4ccccc4)C(C)=C1C3(C)C)[C@]1(OC(C)=O)CO[C@@H]1C[C@@H]2O` [PACLITAXEL], the IC50 in assay [1] is 0.11 µM; in assay [2], 0.03 µM; in assay [3], 0.06 µM; in assay [4], 0.12 µM.

Turning to `COc1ccc(C2CC(c3ccc(Br)cc3)=NN2C(C)=O)cc1` (stereo not drawn), the IC50 was 17.9 µM in assay [1], 15.7 µM in assay [2], 16.9 µM in assay [3] and 17.8 µM in assay [4].

With `COc1ccc(C2CC(c3cccc([N+](=O)[O-])c3)=NN2C(C)=O)cc1OC` (stereo not drawn), the IC50 in assay [1] is 7.81 µM; in assay [2], 6.22 µM; in assay [3], 8.11 µM; in assay [4], 6.78 µM.

For the molecule `COc1ccc(C2CC(c3ccc4ccccc4c3)=NN2C(C)=O)cc1` (stereo not drawn), the IC50 stood at 3.23 µM in assay [1], 4.12 µM in assay [2], 5.79 µM in assay [3] and 4.53 µM in assay [4].

On to `CC(=O)N1N=C(c2cccc([N+](=O)[O-])c2)CC1c1ccccc1` (stereo not drawn), for which the IC50 worked out at 8.93 µM in assay [1], 7.89 µM in assay [2], 9.92 µM in assay [3] and 8.71 µM in assay [4].

In the case of `CC(=O)N1N=C(c2ccco2)CC1c1ccc([N+](=O)[O-])cc1` (stereo not drawn), the IC50 in assay [1] was 21.8 µM; in assay [2], 35.8 µM; in assay [3], 23 µM; in assay [4], 21.3 µM.

Take `CC(=O)N1N=C(c2cccc3ccccc23)CC1c1cccc(Cl)c1Cl` (stereo not drawn): the IC50 in assay [1] is 16.8 µM; in assay [2], 22.1 µM; in assay [3], 19.1 µM; in assay [4], 20.1 µM.

Turning to `CC(=O)N1N=C(c2ccco2)CC1c1cccc([N+](=O)[O-])c1` (stereo not drawn), the IC50 is 30 µM in assay [1], 28.9 µM in assay [2], 23.4 µM in assay [3] and 20 µM in assay [4].

As to `CC(=O)N1N=C(c2ccc(Br)cc2)CC1c1ccc2c(c1)OCO2` (stereo not drawn), the IC50 turned out to be 8.72 µM in assay [1], 9.89 µM in assay [2], 11.2 µM in assay [3] and 11 µM in assay [4].

For orientation: IC50 means the midpoint of a concentration-inhibition curve. A higher IC50 goes with weaker potency in that assay.
